This experiment relates to P. falciparum 3D7 growth, pLDH absorbance. Description: P. falciparum 3D7 growth inhibition, dose response, strain 3D7 (AID 2305).

These results are taken from PubChem BioAssay AID2305 (GlaxoSmithKline (GSK), 2010).

Where “and” joins values, the source holds several entries; their conditions need not be identical. Equal entries are not always repeated.

What is called IC50 is the concentration that gives 50% inhibition. Lower therefore signals inhibition by little substance. In turn, `CCc1c[nH]c2c(N3CCCC3=O)cc(C(=O)N[C@@H](Cc3ccccc3)[C@H](O)CNC(C)(C)c3cccc(C(F)(F)F)c3)cc12` yielded an IC50 of 120 nM.
The compound `Cc1c(S(=O)(=O)Nc2ccc3nccc(N4C[C@@H](C)N[C@@H](C)C4)c3c2)sc2ccc(Cl)cc12` gave an IC50 of 1020 nM.
Next, `CCN(CC)c1cc(C)c2cc(NC(=O)c3cc(=O)c4ccccc4o3)ccc2n1`: 220 nM.
As for `Cc1ccnc2nc(C(=O)Nc3cc(C(F)(F)F)ccc3N3CCCCC3)nn12`, the IC50 came to 60 nM.
In the case of `COc1cccc(-c2cc(C(=O)NC3CCC(N4CCC(c5ccccc5C)CC4)CC3)[nH]n2)c1` (stereo unspecified), the IC50 was 1120 nM.
With `OC(CNCc1ccccc1OC(F)F)c1cccc(C(F)(F)F)c1` (stereo unspecified), the IC50 turned out to be 760 nM.
Under `Cc1ccc(N2CCN(CCCCNC(=O)c3ccc(NC(=O)c4ccc(Cl)cc4)cc3)CC2)c(C)c1` stands 760 nM.
The compound `COc1nc2c(CCN3CC[C@@H](NCc4cc(C#N)c5c(c4)CCO5)[C@@H](O)C3)ccnc2cc1F` came in with an IC50 of 1030 nM.
Take `O=C(NC1CCN(Cc2ccc(F)cc2)CC1)c1ccc(-c2cccc(C(F)(F)F)c2)s1`: the IC50 was determined as 1360 nM.
Consider `Cn1c(N)c(N=O)c(=O)[nH]c1=O`, for which the IC50 was found to be 180 nM.
As to `CC(Cc1ccc(OCCN2CCN(c3cccc(Cl)c3)CC2)cc1)NCC(O)c1cccc(C(F)(F)F)c1` (stereo unspecified), the IC50 came out at 600 nM.
The compound `Cc1ccc(-n2c(=O)c3cccnc3n2CC(=O)Nc2cccc(C)c2C)cc1` gave an IC50 of 860 nM.
Compound `OCCN1CCN(Cc2cccc(-c3cccc(-c4nc5ccc(F)cc5[nH]4)c3)c2)CC1` registered an IC50 of 710 nM.
Under `COc1ccc(C)c(Nc2ccnc(Nc3cccc(-c4nc5ccccc5[nH]4)c3)n2)c1` stands 720 nM; under `Cc1[nH]c(C)c(-c2ccc(OCc3ccc(F)cc3)cc2)c(=O)c1Cl`, 570 nM.
With `c1ccc(-c2cc3cccc(-c4nc5ccncc5[nH]4)c3o2)cc1`, the 50% inhibitory concentration (IC50) came to 110 nM.
As for `COc1ccccc1CN1CCC(NC(=O)c2ccc(-c3cccc(Cl)c3)s2)CC1`, the concentration for half-maximal inhibition (IC50) amounted to 1420 nM.
The compound `Cc1ccc(Nc2nccc(Nc3ccc4c(c3)nc(Nc3cc(C(C)(C)C)on3)n4C)n2)cc1S(C)(=O)=O` displayed an IC50 of 600 nM.
With `OC(CN(Cc1ccccc1)Cc1ccccc1)Cn1c2ccc(Cl)cc2c2cc(Cl)ccc21` (stereo unspecified), the IC50 is 990 nM.
With `O=C(/C=C/c1ccc2ccccc2c1)NCC1(c2ccc(-c3ccccc3)cc2)CCOCC1`, the concentration for half-maximal inhibition (IC50) came to 1520 nM.
As to `NC(=O)c1ccsc1NC(=O)CNC(c1ccc(F)cc1)c1cccs1` (stereo unspecified), the IC50 is 950 nM.
Under `c1cc(CNCC2CCCO2)cc(-c2csc(-c3nc4ccccc4[nH]3)c2)c1` (stereo unspecified) stands 1040 nM; under `CCCCCN1CCCC1CNS(=O)(=O)c1ccc(C(=O)Nc2cccc(C(F)(F)F)c2)cc1` (stereo unspecified), 1060 nM; under `O=C(/C=C/c1ccc(Cl)c(Cl)c1)NC1CCC(CN2CCC(c3nc4ccccc4n3CCCO)CC2)CC1` (stereo unspecified), 580 nM.
With `CN1CCC=C(C(=O)NCC(C)(C)c2nc(-c3ccc(Cl)c(O)c3)c(-c3ccncc3)[nH]2)C1`, the IC50 is 1000 nM.
`O=C(C1CCN(c2nnnn2-c2ccccc2)CC1)N1CCc2ccccc2C1` yielded an IC50 of 710 nM.
`c1ccc(C(c2cccs2)N2CCN(Cc3ccc(OCCCN4CCCCC4)cc3)CC2)cc1` (stereo unspecified) came in with an IC50 of 1230 nM.
For `Cc1cc(=O)c(-c2ccc(Oc3ccc(Cl)cc3Cl)cc2)c(C)[nH]1`, the IC50 was determined as 840 nM.
Take `CCOCn1c(-c2ccccc2)cc2c3c(N)nc(N)nc3ccc21`: the IC50 was 190 nM.
In turn, `CC(Cl)=CCc1c(C)[nH]c2c(ccc3ccccc32)c1=O` displayed an IC50 of 200 nM.
For the compound `c1cc(CN2CCC(CCN3CCCCC3)CC2)cc(-c2csc(-c3nc4ccccc4[nH]3)c2)c1`, the half-maximal inhibitory concentration (IC50) stood at 140 nM.
Under `CCCCCCn1c(Sc2ccc(C#N)c([N+](=O)[O-])c2)nnc1-c1ccc(Cl)cc1` stands 830 nM; under `CC(C)C[C@H](Nc1ccc(C#N)c2ccccc12)C(=O)NC(C)(C)C12CC3CC(CC(C3)C1)C2`, 920 nM.
`CCN(CC)CCNc1ccc(Nc2ccnc3cc4ccccc4cc23)cc1` had an IC50 of 200 nM.
The compound `CCCN(CCC)CCCNc1ccc(C(=O)Nc2ccc(C(C)C)cc2)cc1[N+](=O)[O-]` had a 50% inhibitory concentration (IC50) of 710 nM.
Under `NC(=O)C1CCN(Cc2ccc(-c3cccc(-c4nc5ccc(F)cc5[nH]4)c3)cc2)CC1` stands 880 nM; under `COCc1nc(N)nc(N)c1-c1ccc(Cl)c(Cl)c1`, 1020 nM.
With `COc1cc2c(C3CCN(CC4CCN(C(=O)/C=C/c5ccc(Cl)c(Cl)c5)CC4)CC3)c[nH]c2cn1`, the IC50 was 730 nM.
Compound `O=C(/C=C/c1ccc(C(F)(F)F)cc1)N1CCc2cc3nccc(N4CCN5CCC[C@H]5C4)c3cc21` gave a half-inhibitory concentration (IC50) of 1510 nM.
For `O=C(Nc1ccc(Cl)cc1)Nc1cccc(-c2cc(CNCCc3ccccc3)oc2-c2ccncc2)c1`, the IC50 is 280 nM.
As for `COc1ccc(Cl)cc1NC(=O)Nc1cc(C)nc2ccccc12`, the IC50 worked out at 290 nM.
The compound `Cn1nc(-c2ccc(NC(=O)Nc3cc(C(F)(F)F)ccc3F)c(F)c2)c2cnc(NCCCN3CCOCC3)nc21` returned an IC50 of 600 nM.
Next, `O=C(N[C@H](Cc1ccc(Cl)cc1)C(=O)N1CCN(c2ccnc3cc(Cl)ccc23)CC1)[C@H]1Cc2ccccc2CN1`: 420 nM; `Cc1ccc(F)cc1S(=O)(=O)Nc1cccc(CCN2CCC(N3CCCCC3)CC2)c1`: 1120 nM; `CC(C)Oc1cc(-c2ccc(S(C)(=O)=O)cc2)nc(N(Cc2cccc(F)c2F)Cc2cccc(F)c2F)n1`: 120 nM.
Compound `COc1ccc(CN2CCCN(Cc3cccc(NC(=O)c4cc5ccccc5s4)c3)CC2)cc1` gave an IC50 of 840 nM.
As for `CCC[C@@H]([C@@H](CC1CCCCC1)C(=O)N[C@@H](CCCCNS(C)(=O)=O)C(=O)Nc1nccs1)N(O)C=O`, the IC50 was found to be 80 nM.
The compound `COc1ccc(-c2ccc(CNC(=O)c3cccc(C#N)c3)c(F)c2)cc1CN1CCCN(C)CC1` returned an IC50 of 800 nM.
The compound `CCN(CC)S(=O)(=O)c1cc(-c2ccc(=O)n(CC(=O)c3ccc(C)cc3)n2)ccc1C` registered an IC50 of 890 nM.
Consider `COc1ccc(-c2ccc(S(=O)(=O)Nc3cc4c(cc3OC(C)C)CCNCC4)cc2)cc1`, for which the IC50 was determined as 970 nM.
The compound `FC(F)(F)c1ccc2c(C=Cc3ccncc3)c[nH]c2c1` registered an IC50 of 710 nM.
With `Cc1cc(N2CCCC2)nc(Nc2ccc(NC(=O)C3CCCC3)cc2)n1`, the IC50 is 1110 nM.
`CC(CNC(=O)[C@H]1CNCCN1C(=O)CCCc1ccccc1)c1ccccc1` (stereo partly specified): the IC50 is 920 nM.
As to `O=C(COc1cccc([N+](=O)[O-])c1)Nc1ccc(-c2nc3ccccc3[nH]2)cc1`, the IC50 was found to be 750 nM.
In turn, `CCCN(CC1CC1)c1ncc(-c2cccc(CNCc3ccccc3O)c2)cn1` gave an IC50 of 700 nM.
On to `Cc1ccc(/C=C/C(=O)NCCCCCN2CCCN(C(=O)Nc3ccc(Cl)c(Cl)c3)CC2)cc1`, for which the IC50 stood at 940 nM.
Under `CN1CCN(c2cc3c(cc2Cl)CCN3C(=O)Nc2ccc(NC(=O)c3ccc(C(F)(F)F)cc3)cc2)CC1` stands 510 nM; under `c1ccc(COc2ccc(Nc3ncnc4cnc(-c5ccc(CNc6cccnc6)o5)cc34)cc2)cc1`, 860 nM.
Consider `COc1ccc2nccc(N(C)CC3(O)CCC(NCc4ccc5c(n4)NC(=O)CS5)CC3)c2n1` (stereo unspecified), for which the IC50 was found to be 700 nM.
The compound `CNCCNCc1ccc(-c2ccc(-c3nc4c(C)cccc4[nH]3)cc2)cc1` gave an IC50 of 670 nM.
Under `COc1ccc(-c2nc3cccnc3n2CC(=O)Nc2cc(Cl)c(Cl)cc2Cl)c(OC)c1` stands 720 nM; under `O=C(NCC(CCN1CCC(c2c[nH]c3ccccc23)CC1)c1ccccc1)Nc1ccc(Cl)c(Cl)c1` (stereo unspecified), 830 nM.
`COc1ccc(-c2cccc(NC(=O)c3ccccc3)c2)cc1CN1CCCN(C)CC1` had an IC50 of 730 nM.
Compound `CCCCCCN1CCC(NCc2ccc(C(F)(F)F)cc2)CC1` had an IC50 of 370 nM.
With `CCC1(CC)N=C(N)N=C(N)C1c1ccc(Cl)c(Cl)c1` (stereo unspecified), the IC50 amounted to 380 nM.
As for `Cc1ccc(Nc2nccc(Nc3ccc4c(C)[nH]nc4c3)n2)cc1F`, the IC50 was determined as 780 nM.
Next, `CCNc1cc(C)nc(Nc2ccc(NC(=O)C3CCCC3)cc2)n1`: 1120 nM.
The compound `COc1cc(OC)cc(-c2nnc(Sc3ccc(C#N)c([N+](=O)[O-])c3)n2C)c1` gave an IC50 of 940 nM.
With `N#Cc1c(Cl)cccc1Oc1ccc(S(=O)(=O)NC2CCC(CN3CCC(c4c[nH]c5ccccc45)CC3)CC2)cc1` (stereo unspecified), the half-maximal inhibitory concentration (IC50) was 710 nM and 1070 nM.
`CCCCCCn1c(Sc2ccc(C#N)c([N+](=O)[O-])c2)nnc1-c1cccc(Cl)c1` gave an IC50 of 610 nM.
The compound `CCOc1cc(C2C(C(=O)OC(C)C)=C(C)NC3=C2C(=O)CC(c2ccc(Cl)cc2)C3)ccc1OC(C)=O` (stereo unspecified) had an IC50 of 930 nM.
With `Fc1ccc2nc(-c3ccc(-c4cccc(CN5CCC(CCN6CCCCC6)CC5)c4)cc3)[nH]c2c1`, the IC50 stood at 140 nM.
In turn, `CC(C)(C)c1ccc(CNC(=O)/C=C/c2ccc(CNC3CCNCC3)cc2)cc1` had an IC50 of 1090 nM.
Regarding `Fc1ccc(-c2csc3ncnc(Cl)c23)cc1`, the IC50 worked out at 330 nM.
In the case of `CC(C)C1=C[C@H]2C[C@]3(C4OCCO4)[C@@H]4CC[C@@H](C)[C@H]4C[C@@]2(C(=O)OCC2COCO2)[C@]13C(=O)OC(c1ccccc1)c1ccccc1` (stereo partly specified), the IC50 amounted to 850 nM.
As for `c1ccc(Nc2nc(-c3ccccn3)cs2)nc1`, the IC50 was found to be 1150 nM.
On to `O=C(COc1ccccc1Cc1ccccc1)Nc1cc(Cl)ccc1-n1cncn1`, for which the IC50 came out at 640 nM.
`N#Cc1ccc2c(c1)CCN(CCC1CCC(NC(=O)/C=C/c3ccc4[nH]ccc4c3)CC1)CC2` (stereo unspecified) showed an IC50 of 1060 nM.
`Cc1cc(NCCC(=O)Nc2ccccc2)nc(NCCc2cccnc2)n1` registered an IC50 of 1240 nM.
Next, `COc1ccc2nccc([C@@H](O)CN3CCC(NCc4ccc5nc[nH]c(=O)c5c4)CC3)c2c1`: 920 nM.
In the case of `COc1cccc(OC)c1OCCCON1C(N)=NC(N)=NC1(C)C`, the IC50 amounted to 10 nM.
As to `CNCCCNc1ccnc2cc(Cl)ccc12`, the IC50 was found to be 60 nM.
On to `Cc1cc(OCCCNc2nc(NCCc3ccc(O)cc3)nc(N3CCNCC3)n2)c(Cl)c(C)c1Cl`, for which the IC50 was determined as 960 nM.
`COc1cc(Cc2cnc(N)nc2N)cc(OCCCCc2ccc([N+](=O)[O-])cc2)c1OC` yielded an IC50 of 990 nM.
`COc1ccccc1-n1c(SCC(=O)Nc2ccccc2F)nc2cccnc21`: the IC50 was found to be 420 nM.
Under `O=C(NCCN1CCCC1)c1cccc(-c2ccc(-c3nc4ccccc4[nH]3)cc2)c1` stands 920 nM.
